# Laboratory results: US20210093607A1, “ANTITUMOR NANO-DRUG” (SICHUAN YUANNING BIOLOGICAL TECHNOLOGY CO., LTD., priority 2018, published 2021)
# Counter-ions that a name gives are not always drawn.
# Tests used:
# [1] = test system: Human gingival fibroblasts (HGF); type: cell-based; details: MTT, 48 h
# Method: Human gingival fibroblasts (HGF) in logarithmic growth active phase were selected and inoculated in 96-well plates. […] Different concentration gradients were set for each group, and 5 parallel samples were set for each concentration Untreated cells were set as blank control group. After incubation for 48 h, the old culture medium was removed, and 100 μL fresh medium containing 10% (v/v) MTT was added to each well. After incubation for another 2 h, the culture media was removed and 150 μL dimethyl sulfoxide/well was added. After shaking for 2 min, the absorbance of the solution was measured at 490 nm by using a microplate reader Varioscan Flash and cell viability was calculated.
# Untreated cells were set as blank control group. After 48 h of culture, the old culture medium was removed, and 100 μL of culture medium containing 10% (v/v) MTT was added to each well. After incubation for 2 h, 150 μL DMSO was added to each well, and the absorbance at 490 nm was measured with a microplate reader for 2 min, and the cell survival rate was calculated.
# SW480 cells [2] = assay: Determination of mitochondrial membrane potential (JC-1); type: cell-based, human; details: SW480, 1 mM, incubation 24 h, JC-1, flow cytometry
# Method: Determination of mitochondrial membrane potential: SW480 cells in logarithmic growth active phase were prepared into cell suspension and added into 6-well plate (5×10^5 cells/well). […] After incubation for 24 h, the old culture medium was removed, and the cells of each group were collected and centrifuged to obtain pure cells. 1 mL working solution of mitochondrial membrane potential detection kit (JC-1) was added to the collected cells, and then they were mixed thoroughly and incubated for 20 min. Then the mixture was centrifuged at 4°C. to remove working solution, and the cells were washed twice with JC-1 staining buffer (1×) on ice. Finally, 500 μL staining buffer was added to disperse the cells to obtain a cell suspension, and the change of mitochondrial membrane potential was detected by flow cytometry.
# Determination of mitochondrial membrane potential: SW480 cells in logarithmic growth active phase were prepared into cell suspension and added into 6-well plate (5×10^5 cells/well). After incubation for 24 h, cells were treated with 1 mM hydroxyurea, 1 mM cLAVs and 1 mM nano-drug XI, respectively, and ntreated cells were set as blank control group. […] Finally, 500 μL staining buffer was added to disperse the cells to obtain a cell suspension, and the change of mitochondrial membrane potential was detected by flow cytometry.
# SW480 cells [3] = assay: Determination of superoxide anion in mitochondria; type: cell-based, human; details: SW480, 1 mM, incubation 4 h, laser confocal
# Method: Determination of superoxide anion (O2^+) in mitochondria: SW480 cells in logarithmic growth active phase were prepared into cell suspension and added into 6-well plate (5×10^5 cells/well). […] After incubation for 4 h, the old culture medium was removed and 1 mL of fluorescent amine dye (50 μM) was added. After incubation for 2 h, cysteine was added to make the final concentration to be 200 μM. After incubation for 0.5 h, culture medium was removed and cells were washed with Krebs buffer for 3 times, then mitochondrial red dye was added to proceed mitochondrial staining for 30 min, and cells were washed with 37°C. medium for 3 times. Finally, the emission of fluorescent amine at 440-480 nm was detected by laser confocal to quantify […], and the emission of mitochondrial red dye at 590-650 nm was detected to locate mitochondria in cells.
# Determination of superoxide anion (O2^+) in mitochondria: SW480 cells in logarithmic growth active phase were prepared into cell suspension and added into 6-well plate (5×10^5 cells/well). […] Finally, the emission of fluorescent amine at 440-480 nm was detected by laser confocal to quantify O2^+, and the emission of mitochondrial red dye at 590-650 nm was detected to locate mitochondria in cells.
# Caspase-3 = assay: Determination of Caspase-3 activity; type: cell-based, human; details: SW480, 1 mM, incubation 24 h, relative to blank control
# Method: Determination of Caspase-3 activity: SW480 cells in logarithmic growth active phase were prepared into cell suspension and added into 6-well plate (4×10^5 cells/well). […] After incubation for 24 h, the old culture medium was removed and cells were collected and then centrifuged for 5 min (1200 rpm/min) at 4°C. The cells were washed with cold PBS twice, and the supernatant was sucked up as much as possible every time. 100 μL of cell lysate containing 1 mM phenylmethylsulfonyl fluoride (PMSF, protease inhibitor) was added to the collected cells, which were placed on ice for 30 min and vortex once every 5 min. […] 20 μL supernatant was taken for detection with Caspase-3 activity detection kit, and the absorbance value at A405 nm or A400 was measured by microplate reader. According to the absorbance ratio of material group cells to blank control group cells, the relative Caspase-3 activity degree was calculated.
# Determination of Caspase-3 activity: SW480 cells in logarithmic growth active phase were prepared into cell suspension and added into 6-well plate (5×10^5 cells/well). […] 20 μL supernatant was taken for detection with Caspase-3 activity detection kit, and the absorbance value at A405 nm or A400 nm was measured by microplate reader. According to the absorbance ratio of material group cells to blank control group cells, the relative Caspase-3 activity degree was calculated.
# [4] = test system: Subcutaneous SW480 xenograft model; assay: In vivo antitumor assessment, subcutaneous SW480 xenograft; set-up: species or system BALB/c nude mice; details: SW480 xenograft nude mice; LA/cLAVs 10 mg/kg, Hydrea 6 mg/kg; once every 3 days, 8 times
# Text: Subcutaneous SW480 xenograft model was established in BALB/c nude mice (about 20 g each) of 4 weeks old.
# SW480 cells [5] = assay: Determination of cytochrome C release (western blot); type: cell-based, human; details: SW480, 1 mM, incubation 24 h
# Method: Determination of cytochrome C release: SW480 cells in logarithmic growth active phase were prepared into cell suspension and added into 6-well plate (5×10^5 cells/well). […] After incubation for 24 h, the old culture medium was removed and cells were collected. The collected cells were centrifuged (1200 rpm/min) for 5 min at 4°C., and the supernatant was removed. The cells were washed with cold PBS twice, and die supernatant was sucked up as much as possible every lime. 100 μL of cell lysate containing 1 mM phenylmethylsulfonyl fluoride (PMSF, protease inhibitor) was added to the collected cells, which were placed on ice for 30 min and vortex once every 5 min. Then the mixture was centrifuged at 12000 rpm at 4°C. for 60 min, and the supernatant was quickly collected in another clean centrifuge tube, 20 μL supernatant was taken to analyze the content of cytochrome C in cytoplasm by western blot.
# Determination of cytochrome C release: SW480 cells in logarithmic growth active phase were prepared into cell suspension and added into 6-well plate (5×10^5 cells/well). After incubation for 24 h, cells were treated with […], 1 mM cLAVs and 1 mM nano-drug XI, respectively, and untreated cells were set as blank control group. After incubation for 24 h, the old culture medium was removed and cells were collected. […]
SMILES,toxicity to normal cells (cell viability) [1],mitochondrial membrane potential loss (SW480 cells [2]),relative superoxide anion level in mitochondria (SW480 cells [3]),relative Caspase-3 activity (Caspase-3),tumor inhibition effect (tumor volume) [4],cytochrome C release into cytoplasm (SW480 cells [5])
"COc1cccc2c1C(=O)c1c(O)c3c(c(O)c1C2=O)C[C@@](O)(C(=O)CO)C[C@@H]3O[C@H]1C[C@H](N)[C@H](O)[C@H](C)O1 [DOX.HCl, doxorubicin hydrochloride]",can kill normal cells at very low doses,,,,,
"Nc1ccn([C@@H]2O[C@H](CO)[C@@H](O)C2(F)F)c(=O)n1 [Gem.HCl, gemcitabine hydrochloride]",can kill normal cells at very low doses,,,,,
"O=C(O)CCCC[C@@H]1CCSS1 [LA, (R)-(+)-lipoic acid]",,can induce the decrease of mitochondrial membrane potential,can induce mitochondria to produce O2^+,can stimute the relative activity of Caspase-3,,
NC(=O)NO [hydroxyurea],,can all induce the decrease of mitochondrial membrane potential,can all induce mitochondria to produce O2^+,can stimulate the relative activity of Caspase-3,good tumor inhibition effect,promote the release of cytochrome C from the mitochondria to the cytoplasm
